Experimental data reported in patent US5925528A, “Murine cell lines which over produce acidic fibroblast growth factor (aFGF) and method of using same” (Ohio State University Research Foundation, priority 1997, dated 1999).
Entries after “also recorded” stand apart in the source; their conditions may differ.

Tests used:
[1] = tested on: sense transfectants (Tr31-5-1, Tr33-1-2, Tr34-4-1 and Tr34-1-1); experiment: Mitogenic response ([3H]thymidine) of sense transfectants compared with parental NIH/3T3 cells; type: cell-based, mouse
Method: (§1) FIG. 12 is a graph showing the mitogenic effects of different growth factors to various transfected cell lines. Cells were grown to confluence, changed to Dulbecco's modified Eagle medium containing 0.5% calf serum and grown for two more days. Different growth factors or calf serum was then added to the medium to stimulate cells to grow. [^3 H]thymidine was added 18 hours after addition of the mitogens and cells were incubated for another 6 hours. Bovine aFGF (b-aFGF) represents the truncated forms while human aFGF purified from Tr31-5-1 (rh-aFGF) represents the full-length protein. Cell lines, Tr31-5-1, 33-1-2, 34-1-1, and 34-4-1 are NIH/3T3 derivatives containing the aFGF cDNA construct in the positive orientation; whereas Tr31-11-1 contains aFGF cDNA in the anti-sense orientation.
(§2) Cells transfected with the EDNA coding for the full-length human aFGF were compared with the parental NIH/3T3 cells by determining their responses to various mitogens. […] Therefore, the lack of mitogenic response of Tr31-5-1 and Tr33-1-2 to rh-aFGF is not likely due to the trivial explanation of a defective mitogen. Thus, Tr31-5-1 and Tr33-1-2 may have lost some component of the pathway and these cell lines provide a unique means for elucidating the components responsive to the full-length aFGF.

newt KGFR [2] = experiment: Binding assay (Scatchard plot) using KPTr2-2 cells and 125I-aFGF; design: species or system newt (Notophthalamus viridescens); settings: KPTr2-2 cells, read-out: Kd of newt KGFR toward human aFGF
Description: (§3) Binding assays using KPTr2-2 and ^125 I-aFGF have been carried out. […] The Kd is slightly higher than the typical sub-nM range of mammalian KGFR. However, this may reflect the species difference since we used a human ligand for the newt receptor.

Tr31-5-1 cells = experiment: Mitogenic response ([3H]thymidine) of Tr31-5-1 cells; type: cell-based, mouse; settings: listed as full-length aFGF
Method: as §1, §2

Tr33-1-2 cells = experiment: Mitogenic response ([3H]thymidine) of Tr33-1-2 cells; type: cell-based, mouse; settings: listed as full-length aFGF
Method: as §1, §2

NIH/3T3 cells = experiment: Mitogenic response ([3H]thymidine) of NIH/3T3 cells; type: cell-based, mouse
Method: as §1, §2

Swiss/3T3 cells = experiment: Mitogenic response ([3H]thymidine) of Swiss/3T3 cells; type: cell-based
newt KGFR [3] = experiment: Competition assay using KPTr2-2 and 125I-aFGF; type: binding, newt (Notophthalamus viridescens); settings: KPTr2-2 cells, compared with aFGF
Description: as §3

newt KGFR [4] = experiment: Crosslinking of 125I-aFGF to CHO-K1 cells over-expressing newt KGFR (KPTr2-2), competition with excess cold ligand; type: binding, newt (Notophthalamus viridescens); settings: 500-fold molar excess of cold ligand, KPTr2-2 cells
Method: CHO cells transfected with pBJ5 vector (lane 1) or with newt KGFR expression vector (lanes 2-4) were crosslinked with ^125 I-aFGF using 0.3 mM disuccinimidyl suberate (DSS). Excess amounts (500-fold) of aFGF (lane 3) or KGF (lane 4) were used to compete with ^125 I-aFGF. Crosslinked products were analyzed on a 7.5% SDS-polyacrylamide gel.
To characterize the newt FGFR EDNA functionally, the newt KGFR were expressed in CHO-K1 cells. The mammalian expression vector, pBJ5, which contains a chimeric promoter derived from HTLV-I and SV40, was used to express the newt KGFR and FGFR2 cDNA. […] The crosslinked product is absent in KPTr1-8, the CHO cells that were transfected with the pBJ5 vector alone. The crosslinked product thus appears to be specific. Similarly, a cell line over-expressing the human KGFR (T-1063-29-2 from S. A. Aaronson, NIH) was able to produce a somewhat smaller crosslinked product than the newt KGFR. Antibodies (both monoclonal and polyclonal) directed against a peptide from the carboxyl terminus of the newt FGFR2 are generated.

PDGF [reference compound]
mitogenic response relative to parental NIH/3T3 cells ([1]; sense transfectants Tr31-5-1, Tr33-1-2, Tr34-4-1 and Tr34-1-1): stronger mitogenic responses than NIH/3T3 cells

human aFGF: human aFGF purified from Tr31-5-1 (rh-aFGF) represents the full-length protein
Kd (newt KGFR [2]): 1.3 nM | mitogenic response (Tr31-5-1 cells): failed to give any mitogenic responses; also recorded: do not respond | mitogenic response (Tr33-1-2 cells): failed to give any mitogenic responses; also recorded: do not respond | mitogenic response (NIH/3T3 cells): responded to the mitogenic stimulation | mitogenic response (Swiss/3T3 cells): responded to the mitogenic stimulation | mitogenic response relative to parental NIH/3T3 cells ([1]; sense transfectants with the exception of Tr33-1-2): respond less strongly than the parental NIH/3T3 cells

human recombinant bFGF: human recombinant basic fibroblast growth factor
competition with 125I-aFGF (newt KGFR [3]): does not compete as well as aFGF

B1: human recombinant KGF: human recombinant keratinocyte growth factor (protein, UniProt P21781 32-194, looked up)
Fibroblast growth factor 7: CNDMTPEQMATNVNCSSPERHTRSYDYMEGGDIRVRRLFCRTQWYLRIDKRGKVKGTQEMKNNYNIMEIRTVAVGIVAIKGVESEFYLAMNKEGKLYAKKECNEDCNFKELILENHYNTYASAKWTHNGGEMFVALNQKGIPVRGKKTKKEQKTAHFLPMAIT
competition of the 150 kDa crosslinked product (newt KGFR [4]): successfully competed off
